According to patent US8591966B2, “Composition containing oils of chamomile flower and black cumin with reduced endotoxins” (Insignion Holdings Limited, priority 2007, dated 2013):
Where two headings read alike, the source gives them in different places.

Assays:
Type in all cases: cell-based
5-LOX = target: T1, 5-LOX (Homo sapiens, UniProt P09917); test: 5-LOX inhibition assay (LTB4) in differentiated HL-60 granulocytes; conditions: reference listed under the 5-LOX IC50 table
T1 construct: endogenous in cells; host or cells: HL-60 (human myeloid leukemia, DSMZ ACC 3), differentiated with DMSO
T1 sequence (P09917 1-674): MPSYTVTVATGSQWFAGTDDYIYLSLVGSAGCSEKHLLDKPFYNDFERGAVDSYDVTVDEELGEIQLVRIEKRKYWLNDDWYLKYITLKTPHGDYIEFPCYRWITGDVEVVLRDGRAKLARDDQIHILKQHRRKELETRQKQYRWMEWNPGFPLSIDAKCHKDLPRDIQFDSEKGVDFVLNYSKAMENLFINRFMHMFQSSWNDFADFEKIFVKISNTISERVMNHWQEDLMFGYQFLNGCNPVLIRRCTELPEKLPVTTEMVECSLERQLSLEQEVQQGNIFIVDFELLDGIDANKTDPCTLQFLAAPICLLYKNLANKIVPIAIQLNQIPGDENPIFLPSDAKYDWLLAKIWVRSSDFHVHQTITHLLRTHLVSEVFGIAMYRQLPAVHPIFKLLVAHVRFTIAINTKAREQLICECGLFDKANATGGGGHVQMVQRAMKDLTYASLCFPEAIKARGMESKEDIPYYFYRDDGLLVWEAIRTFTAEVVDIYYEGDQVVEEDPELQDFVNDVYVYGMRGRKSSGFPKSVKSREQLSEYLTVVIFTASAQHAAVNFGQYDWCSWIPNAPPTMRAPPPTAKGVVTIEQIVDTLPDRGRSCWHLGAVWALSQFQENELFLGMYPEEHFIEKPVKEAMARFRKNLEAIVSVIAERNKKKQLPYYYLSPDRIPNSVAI
Procedure: Human HL-60 cells (myeloid leukemia, DSMZ No ACC 3) were kept at 37° C. in a humidified atmosphere with 5% CO2 and cultured in complete RPMI1640 medium supplemented with 10% fetal calf serum and 1% (v/v) penicillin/streptomycin solution. Cells were differentiated for 6 to 8 days with DMSO (1.2% v/v). The 5-LOX activity assay was carried out as described by Bennet et al. [ref: 2]. Briefly, differentiated cells were harvested, suspended in PBS containing Ca^2+ (1 mM) and glucose (1 mM) and distributed into a 96-well microtiter plate (1×10^6 cells/well).
After preincubation with sample or vehicle for 15 min at room temperature the reaction was started by adding calcium ionophore A 23187 (5 uM) and arachidonic acid (10 uM). All values are final concentrations. […] After neutralization with 50 μl PBS and centrifugation (340×g) for 10 min the LTB4 concentration in the supernatant was determined.
Effects of samples and reference compound [ref: 3] on the activity of 5-LOX were measured by determining the quantity of leukotriene B4 produced under assay conditions. The quantification of leukotriene B4 was performed with Enzyme Immuno Assay (EIA) Kit from Cayman No 520111 (LTB4). The optical densities were measured at wavelength=415 nm. The quantities were calculated using a standard curve of at least 5 different concentrations. Sample points were measured as duplicates. […]

[1] = test system: prostate cancer cells DU145; test: DNA synthesis (3H-thymidine incorporation) in DU145; conditions: Homo sapiens, DU-145
Procedure: (§1) ^3H-Thymidine incorporation: DU145 and U-87MG cells were harvested by trypsinisation and seeded at 10,000 cells/well in a 96 well plate. The cells were incubated with the samples at the required concentrations for 24 hrs and/or 48 hrs at 37° C. and 5% CO2. The cells were pulsed with ^3H-Thymidine (1 μCi/ml) (Perkin Elmer) for 24 hours. After which, they were washed with PBS and fixed twice with methanol for 5 min. The protein was precipitated by 0.3N TCA. After a washing step 150 μl 0.3N NaOH was added for 15 min to lyse the cells. Back ground controls were measured with the samples without cells.
(§2) To detect the incorporated ^3H-Thymidine for the DNA synthesis the samples were transferred in scintillation tubes with scintillation cocktail. The quantification was performed in a Tri-Carb 1900 TR liquid scintillation counter (Packard, USA).
(§3) The effect of several concentrations of samples was measured by determining amount of radiolabel (dpm) under the assay conditions. Dose related values were expressed as a percentage of the positive control values. Sample points were measured as quadruplicates, errors are expressed as standard deviations.

[2] = test system: glioblastoma cells U-87 MG; test: DNA synthesis (3H-thymidine incorporation) in U-87MG; conditions: Homo sapiens, 48 h incubation
Procedure: as §1, §2, §3

| Structure (SMILES) | IC50 (5-LOX) | IC50 ([1]; DU145, 24 h incubation, read-out: IC50 (nM) on DNA synthesis, 24 h incubation) | IC50 ([1]; DU145, 48 h incubation, read-out: IC50 (nM) on DNA synthesis, 48 h incubation) | IC50 [2] |
| --- | --- | --- | --- | --- |
| C[C@@H]1C[C@H]2[C@@H]3CCC4=CC(=O)C=C[C@]4(C)[C@@]3(F)[C@@H](O)C[C@]2(C)[C@@]1(O)C(=O)CO [Dexamethasone] | 0.28 nM |  |  |  |
| CC[C@@]1(O)C(=O)OCc2c1cc1n(c2=O)Cc2cc3ccccc3nc2-1 [Camptothecin] |  | 152 nM | 7.5 nM | 3.32 nM |
